Source: patent US9255110B2 (Hoffmann-La Roche Inc., priority 2010, dated 2016)
Where a name gives a salt, the structure may show the parent alone.

Experiments:
Type in all cases: biochemical
IRAK-4 = IRAK-4 (Homo sapiens (Human), UniProt Q9NWZ3); test: In vitro IRAK-4 kinase assay; settings: purified recombinant IRAK-4, 50 uM ATP, 33P peptide phosphorylation
Summary of the method: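 Recombinant IRAK-4 or IRAK-1 incubated with 250 uM synthetic peptide in MOPS pH7.2 kinase buffer with 50 uM ATP, 20 mM MgCl2 and γ-33P ATP for the indicated time. Phosphorylated peptide captured on phosphocellulose, washed with phosphoric acid, quantified by scintillation counting.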

IRAK-1 = IRAK-1 (Homo sapiens (Human), UniProt P51617); test: In vitro IRAK-1 kinase assay; settings: purified recombinant IRAK-1, 50 uM ATP, 33P peptide phosphorylation
Protocol: Purified recombinant IRAK-4 protein was incubated with 250 uM synthetic peptide ([…]) in 30 ul of kinase buffer including (20 mM MOPS pH7.2, 25 mM beta glycerol phosphate, 5 mM EGTA, 1 mM sodium orthovanadate, 1 mM DTT, 50 uM ATP, 20 mM MgCl2, 10 uCi γ-^33P, 0.1% BSA) for the indicated time. For purified recombinant IRAK-1 protein kinase assay, 50 uM ATP was used. A 25 ul aliquot of the reaction mixture was transferred on to p81 phosphocellulose squares (Upstate Biotechnology, Lake Placid, N.Y.). The assay squares were washed three times with 0.75% phosphoric acid and once with acetone. Enzyme activity was measured by determining the bound radioactivity by liquid scintillation counting.

human full length SYK = human full length SYK (Homo sapiens (Human), UniProt P43405); test: In vitro SYK kinase assay; settings: 20 uM ATP, 33P peptide phosphorylation
Protocol: Spleen tyrosine kinase (SYK) is a tyrosine kinase that plays an important role in B cell signal transduction. SYK activity is measured by phosphorylation of a peptide substrate (Biotin-[…]) with [gamma-^33P] ATP. The enzyme reaction was conducted at 20 uM ATP with 0.05 uCi [gamma-^33P]ATP (2 uCi for 40 ul assay) and 10 uM peptide substrate at final volume of 40 ul in buffer containing 50 mM Hepes, pH 7.2, 1 mM dithiothreitol, 10 mM MgCl2, 100 uM Na3VO4, 0.1% BSA and 10% DMSO. The enzyme assay was carried out with human full length SYK in the presence or absence of ten compound concentrations. SYK and compound were pre-incubated for 10 minutes. Then, the enzymatic reaction was initiated by addition of ATP and peptide substrate. The reaction mixture was incubated at room temperature for 30 minutes. At the end of incubation, the reaction was terminated by transferring 25 ul of the reaction mixture to 100 ul of 10% streptavidin slurry containing 100 mM EDTA. The reaction product was captured on the affinity resin and sequentially washed on a filtration plate (Millipore, MABVNOB50) with 2M NaCl, 2M M NaCl in 1% phosphoric acid and water to remove free radio nucleotide. Then the incorporation of ^33P into peptide substrate was quantified on a microplate scintillation counter. Compound inhibition potency on SYK was measured by IC50 value generated from ten concentration inhibition curve fitted into the 3-parameter model: % inhibition=Maximum/(1+(IC50/[Inhibitor])^slope). Data were analyzed on Microsoft Excel for parameter estimation.

Sequence of IRAK-1 (P51617 whole entry, species assumed): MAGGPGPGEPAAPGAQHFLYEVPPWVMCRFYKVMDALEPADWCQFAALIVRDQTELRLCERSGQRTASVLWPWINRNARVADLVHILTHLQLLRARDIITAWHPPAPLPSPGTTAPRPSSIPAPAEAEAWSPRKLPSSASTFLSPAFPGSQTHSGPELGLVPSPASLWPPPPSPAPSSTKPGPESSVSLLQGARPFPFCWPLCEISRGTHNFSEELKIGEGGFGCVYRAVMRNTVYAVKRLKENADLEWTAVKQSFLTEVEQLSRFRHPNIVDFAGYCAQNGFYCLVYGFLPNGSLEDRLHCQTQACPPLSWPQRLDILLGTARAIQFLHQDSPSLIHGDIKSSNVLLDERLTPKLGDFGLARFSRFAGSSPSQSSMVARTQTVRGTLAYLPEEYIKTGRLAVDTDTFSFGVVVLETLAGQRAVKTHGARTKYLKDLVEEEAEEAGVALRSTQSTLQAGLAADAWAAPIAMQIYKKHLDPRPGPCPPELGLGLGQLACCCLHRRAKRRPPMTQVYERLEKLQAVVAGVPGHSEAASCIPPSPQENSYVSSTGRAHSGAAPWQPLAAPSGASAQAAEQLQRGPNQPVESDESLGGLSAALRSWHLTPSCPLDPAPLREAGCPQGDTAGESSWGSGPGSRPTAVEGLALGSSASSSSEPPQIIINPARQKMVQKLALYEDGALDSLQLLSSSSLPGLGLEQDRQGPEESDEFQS
Sequence of IRAK-4 (Q9NWZ3 whole entry, species assumed): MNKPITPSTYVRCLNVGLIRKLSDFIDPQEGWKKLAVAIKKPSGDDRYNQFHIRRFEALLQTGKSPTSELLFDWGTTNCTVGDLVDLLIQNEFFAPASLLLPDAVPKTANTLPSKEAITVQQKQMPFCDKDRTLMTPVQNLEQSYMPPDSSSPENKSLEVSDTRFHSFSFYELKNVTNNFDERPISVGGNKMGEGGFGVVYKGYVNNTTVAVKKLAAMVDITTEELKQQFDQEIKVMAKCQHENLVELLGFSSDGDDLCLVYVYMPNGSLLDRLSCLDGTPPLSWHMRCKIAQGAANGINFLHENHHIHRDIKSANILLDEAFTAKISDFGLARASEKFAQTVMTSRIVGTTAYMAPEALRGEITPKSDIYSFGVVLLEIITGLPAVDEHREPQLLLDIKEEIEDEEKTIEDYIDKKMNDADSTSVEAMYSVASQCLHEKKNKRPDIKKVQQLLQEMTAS

Compound	IC50 (IRAK-4) [nM]	IC50 (IRAK-1) [nM]	IC50 (human full length SYK) [nM]
COc1cc2ncccc2cc1NC(=O)c1csc2cnc(NCCN)nc12	10	712	17
CC(O)CC(C)Oc1cc2ncccc2cc1NC(=O)c1csc2cncnc12 (stereo not drawn)	24	760	449
O=C(Nc1cc2cccnc2cc1OC1CCC(O)CC1)c1cnn2cccnc12 (stereo not drawn) [Example 23]	29	–	103
COc1cc2ncccc2cc1NC(=O)c1csc2cc(CO)cnc12 [Example 30, 6-Hydroxymethyl-thieno[3,{tildeover (2)}beta] pyridine-3-carboxylic acid (7-methoxy-quinolin-6-yl)-amide]	35	–	746
O=C1Cc2cc(N3CCC(CO)CC3)c(NC(=O)c3cnn4cccnc34)cc2N1 [Example 34, Pyrazolo[1,5-alpha]pyrimidine-3-carboxylic acid [5-(4-hydroxymethyl-piperidin-1-yl)-2-oxo-2,3-dihydro-1H-indol-6-yl]-amide]	49	–	478
COc1cc2ncccc2cc1NC(=O)c1csc2cnc(N[C@H](C)CO)nc12 [Example 39, 2-(2-Hydroxy-1-methyl-ethylamino)-thieno[3,2-d]pyrimidine-7-carboxylic acid (7-methoxy-quinolin-6-yl)-amide]	63	–	492
NC(=O)C1CCN(c2ccc(Cl)cc2NC(=O)c2cnn3cccnc23)CC1 [Example 40, Pyrazolo[1,5-alpha]pyrimidine-3-carboxylic acid [2-(4-carbamoyl-piperidin-1-yl)-5-chloro-phenyl]-amide]	69	–	500
COc1cc2ncccc2cc1NC(=O)c1csc2cnc(NC3CC3)nc12 [Example 43, 2-Cyclopropylamino-thieno[3,2-d]pyrimidine-7-carboxylic acid (7-methoxy-quinolin-6-yl)-amide]	74	575	810
COc1cc2ncccc2cc1NC(=O)c1csc2cnc(NCCO)nc12 [Example 45, 2-(2-Hydroxy-ethylamino)-thieno[3,2-d]pyrimidine-7-carboxylic acid (7-methoxy-quinolin-6-yl)-amide]	76	–	216
NCCCOc1cc2ncccc2cc1NC(=O)c1csc2cncnc12 [Example 51, Thieno[3,2-d]pyrimidine-7-carboxylic acid [7-(3-amino-propoxy)-quinolin-6-yl]-amide]	103	529	376
COc1ccc(Cl)cc1NC(=O)c1csc2cnc(NCCN)nc12 [Example 53]	107	813	350
O=C(Nc1cc2cccnc2cc1O[C@@H]1CC[C@H](O)C1)c1csc2cncnc12 [Example 54, hydrochloride]	122	–	500
O=C(Nc1cc2ccccc2cc1OC1CCC(O)CC1)c1cnn2cccnc12 (stereo not drawn) [Example 55, Pyrazolo[1,5-alpha]pyrimidine-3-carboxylic acid [3-(4-hydroxy-cyclohexyloxy)-napthalen-2-yl]-amide]	124	817	628
O=C(Nc1cc(Cl)ccc1OC1CCC(O)C1)c1cnn2cccnc12 (stereo not drawn) [Example 83, Pyrazolo[1,5-alpha]pyrimidine-3-carboxylic acid [5-chloro-2-(3-hydroxy-cyclopentyloxy)-phenyl]-amide]	361	–	656
O=C(Nc1cc(Cl)ccc1OC1CCC(O)CC1)c1cnn2cccnc12 (stereo not drawn) [Example 90, Pyrazolo[1,5-alpha]pyrimidine-3-carboxylic acid [5-chloro-2-(4-hydroxy-cyclohexyloxy)-phenyl]-amide]	459	–	806
